Reference: publication PMC12073177 (Molecules, 2025)

Assays:
[1] = DPPH radical scavenging assay (antioxidant activity); type: biochemical; conditions: in methanol, 30 min, absorbance at 540 nm
Experimental: Absorbance was measured at 540 nm. All experiments were conducted in triplicate.

[2] = MTT cell viability assay in RAW 264.7 cells; type: cell-based, murine; conditions: mouse, RAW 264.7 macrophage cells, RAW 264.7, MTT; for viability at 24 h: tested concentrations up to 40 μM
Experimental: (§1) Absorbance was measured at 570 nm using a microplate reader.
(§2) All experiments were performed in triplicate.

[3] = test system: nitric oxide (NO) production in LPS-stimulated RAW 264.7 cells; experiment: Nitric oxide production in LPS-stimulated RAW 264.7 cells (Griess reagent); type: cell-based, murine; conditions: for effect on NO production (result in words): 5, 10, 20 and 40 µM, LPS-stimulated RAW 264.7; for reduction of NO production: 40 µM, relative to the LPS-treated group, LPS 24 h
Experimental: NO levels in the culture supernatants were quantified using the Griess reagent assay, and absorbance was measured at 540 nm.
RAW 264.7 cells were maintained in Dulbecco’s Modified Eagle Medium (DMEM, Sigma-Aldrich, St. Louis, MO, USA) supplemented with 10% heat-inactivated fetal bovine serum (FBS, Invitrogen, Burlington, ON, Canada) and 1% (w/v) antibiotic-antimycotic solution (Invitrogen, Grand Island, NY, USA). The cells were cultured in a humidified incubator at 37 °C under 95% air and 5% CO2 conditions.
The production of NO was quantified by measuring nitrite levels in the culture supernatants using the Griess reagent (1% sulfanilamide, 0.1% N-(1-naphthyl)-ethylenediamine dihydrochloride, and 5% phosphoric acid). […] The cells were then stimulated with 0.5 μg/mL lipopolysaccharide (LPS, Sigma-Aldrich, CA, USA) for 24 h in a total volume of 200 μL. After incubation, 100 μL of culture supernatant was mixed with an equal volume of Griess reagent and incubated at room temperature for 5 min. Sodium nitrite was used as a standard for calibration, and nitrite concentration was determined by measuring absorbance at 540 nm. All experiments were conducted in triplicate.

[4] = test system: NLRP3; experiment: NLRP3 ELISA in LPS-stimulated RAW 264.7 cells; type: cell-based, murine; conditions: for inhibition at 40 µM: Mus musculus, RAW264.7, read-out: NLRP3 inhibition rate; for NLRP3 inhibition (result in words): 40 µM
Experimental: For evaluating the NLRP3 inhibitory activity, the highest concentration of 40 µM was selected, as this concentration had previously been confirmed to maintain cell viability (Section 2.4.1).
To assess NLRP3 inflammasome activation, RAW 264.7 macrophages were seeded at a density of 5 × 10^5 cells/well in 96-well plates. […] The levels of NLRP3 in the culture supernatant were quantified using a commercially available ELISA kit (Lsbio, WA, USA) according to the manufacturer’s protocol. Absorbance was measured at 450 nm, and NLRP3 concentrations were determined using a standard curve, expressed in ng/mL. To ensure statistical accuracy, all experiments were performed in duplicate.

[5] = target: T1, β-secretase (BACE-1) (Homo sapiens, UniProt P56817); experiment: BACE-1 FRET-based inhibition assay; type: biochemical; conditions: 60 min at room temperature, mean ± SD, ND = no detectable inhibitory activity
T1 construct: purchased Thermo Fisher Scientific, San Diego, CA, USA
T1 sequence (P56817 46-501): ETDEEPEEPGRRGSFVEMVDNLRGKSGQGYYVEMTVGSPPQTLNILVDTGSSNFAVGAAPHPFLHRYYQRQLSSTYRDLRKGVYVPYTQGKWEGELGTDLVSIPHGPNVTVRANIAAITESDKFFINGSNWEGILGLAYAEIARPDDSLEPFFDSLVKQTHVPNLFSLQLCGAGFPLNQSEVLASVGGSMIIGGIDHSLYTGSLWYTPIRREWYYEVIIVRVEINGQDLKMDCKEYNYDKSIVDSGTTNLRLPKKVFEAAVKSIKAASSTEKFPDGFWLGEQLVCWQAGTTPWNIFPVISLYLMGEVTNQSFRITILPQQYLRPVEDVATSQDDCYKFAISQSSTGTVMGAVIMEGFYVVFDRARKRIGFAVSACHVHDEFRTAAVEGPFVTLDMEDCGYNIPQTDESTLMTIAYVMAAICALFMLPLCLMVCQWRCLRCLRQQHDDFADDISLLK
Experimental: The reaction was initiated by adding 10 µL of a 3× BACE-1 enzyme solution. Plates were incubated at room temperature for 60 min in the dark. After incubation, 10 µL of 2.5 mM sodium acetate was added to terminate the reaction. Fluorescence was measured using a multimode plate reader (Multiskan™ GO, Thermo Scientific, Waltham, MA, USA) with an excitation wavelength of 545 nm and an emission wavelength of 585 nm. The IC50 values were determined by plotting relative fluorescence units per hour (RFU/h) against the logarithmic inhibitor concentrations. All experiments were performed in triplicate.

[6] = target: T2, tau protein (tau-BiFC SH-SY5Y cell line) (Homo sapiens, UniProt P10636); experiment: Tau-BiFC SH-SY5Y anti-tau aggregation assay; type: cell-based; conditions: 10 μM, 24 h, compared to the control group
T2 construct: split fluorescent protein fragments for BiFC (complementing N- and C-terminal halves); expressed in transfected cells; host or cells: SH-SY5Y
T2 sequence (P10636 1-441 isoform P10636-8): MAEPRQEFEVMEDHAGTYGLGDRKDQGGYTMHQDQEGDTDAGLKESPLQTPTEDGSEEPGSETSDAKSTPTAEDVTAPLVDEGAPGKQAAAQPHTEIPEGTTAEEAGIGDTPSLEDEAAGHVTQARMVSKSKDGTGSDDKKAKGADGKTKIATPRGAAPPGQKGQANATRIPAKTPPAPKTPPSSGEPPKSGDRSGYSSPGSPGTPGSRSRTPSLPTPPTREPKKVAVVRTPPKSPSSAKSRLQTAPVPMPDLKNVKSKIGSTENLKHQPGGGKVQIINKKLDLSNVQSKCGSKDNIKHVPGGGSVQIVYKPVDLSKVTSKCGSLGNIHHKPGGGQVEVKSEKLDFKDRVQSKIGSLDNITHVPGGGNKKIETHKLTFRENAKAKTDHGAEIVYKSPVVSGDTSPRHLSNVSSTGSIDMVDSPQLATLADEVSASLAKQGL
Experimental: Cells were maintained at 37 °C in a humidified incubator with 5% CO2.

[7] = test system: RAW 264.7 cells; experiment: MTT cell viability assay in RAW 264.7 cells; type: cell-based, murine; conditions: RAW 264.7, MTT, 24 h, 5-40 μM
Experimental: as §1, §2

SMILES	IC50 [1] [µM]	viability at 24 h [2] [%]	effect on NO production (result in words) [3]	inhibition at 40 µM [4] [%]	IC50 [5] [µM]	reduction of NO production [3]	anti-tau aggregation effect (BiFC fluorescence, result in words) [6]	cytotoxicity (result in words) [7]	BACE-1 IC50 [5]	viability at 24 h, 40 µM [2] [%]	NLRP3 inhibition (result in words) [4]
NC(CCC(=O)NNc1ccccc1C(F)(F)F)C(=O)O (stereo not drawn) [RA-2CF3, N^5-((2-(triflouromethyl)phenyl)amino)glutamine]	3 ± 0.03	> 100	moderate NO-reducing effect	≥ 20	11.6 ± 14						
COc1ccccc1NNC(=O)CC[C@H](N)C(=O)O [RA-2OMe, N^5-((2-methoxyphenyl)amino)glutamine]	2.81 ± 0.03	> 100	concentration-dependent reduction in NO levels	≥ 20	7.97 ± 2.46	25~35%	moderate inhibitory effects				
N[C@@H](CCC(=O)NNc1ccc2ccccc2n1)C(=O)O [RA-2Q, N^5-(quinolin-2-ylamino)glutamine]	9.7 ± 0.32		did not significantly suppress NO production	≥ 20			significant reductions in tau aggregation	no significant reduction in cell survival	no detectable BACE-1 inhibitory activity (ND)		
NC(CCC(=O)NNc1cccc(C(F)(F)F)c1)C(=O)O (stereo not drawn) [RA-3CF3, N^5-((3-(triflouromethyl)phenyl)amino)glutamine]	31.7 ± 14.6	> 100	concentration-dependent reduction in NO levels	10 to 15	0.33 ± 0.79		did not show significant anti-tau effects				
NC(CCC(=O)NNc1ccc(OC(F)(F)F)cc1)C(=O)O (stereo not drawn) [RA-4OCF3, N^5-((4-(triflouromethoxy)phenyl)amino)glutamine]	3.77 ± 0.09	> 100	concentration-dependent reduction in NO levels	≥ 20	9.89 ± 13.6						
COc1ccc(NNC(=O)CC[C@H](N)C(=O)O)cc1 [RA-4OMe, N^5-((4-methoxyphenyl)amino)glutamine]	5.49 ± 0.63	> 100	concentration-dependent reduction in NO levels	≥ 20	25 ± 5.72	25~35%	moderate inhibitory effects				
CN(C)NC(=O)CC[C@H](N)C(=O)O [RA-DMe, N^5-(dimethylamino)glutamine]	598		moderate NO-reducing effect				did not exhibit significant anti-tau aggregation activity		no detectable BACE-1 inhibitory activity (ND)	> 80	no significant NLRP3-inhibitory effects
CC(C)NNC(=O)CC[C@H](N)C(=O)O [RA-IPr, N^5-(Isopropylamino)glutamine]	2580 ± 359		did not significantly suppress NO production				did not exhibit significant anti-tau aggregation activity	no significant reduction in cell survival	no detectable BACE-1 inhibitory activity (ND)		no significant NLRP3-inhibitory effects
NC(CCC(=O)NNc1cccc2ccccc12)C(=O)O (stereo not drawn) [RA-NAP]	1.77 ± 0.12		moderate NO-reducing effect	10 to 15	0.66 ± 1.05		significant reductions in tau aggregation			> 80	
N[C@@H](CCC(=O)NNc1ccccn1)C(=O)O [RA-PYD, N^5-(pyridin-2-ylamino)glutamine]	7.4 ± 3.54		did not significantly suppress NO production	≥ 20	0.32 ± 0.08		significant reductions in tau aggregation	no significant reduction in cell survival			
